Results reported in patent publication US12377176B2, “Cancer diagnostic imaging agents” (Technische Universität München, priority 2019, dated 2025).

How the values were obtained:
[1] = Metabolic stability and 18F/19F isotopic exchange in mouse urine (radio-HPLC, radio-TLC); format: in vitro ADME, mice
Experimental: Analytical reversed-phase high pressure chromatography (RP-HPLC) were performed using Shimadzu gradient systems (Shimadzu Deutschland GmbH, Neufahrn, Germany), equipped with a SPD-20A UV/Vis detector (220 nm, 254 nm). […] Eluents for all HPLC operations were water (solvent A) and acetonitrile (solvent B), both containing 0.1% trifluoroacetic acid. […] The gradient for all HPLC operations was: 5% B isocratic 0-3 min, 25-35% B 3-43 min, 95-95% B 43-48 min.
For radio-thin-layer chromatography, aluminum sheets coated with silica gel 60 RP-18 F254s were used with a mobile phase consisting of a 3:2 mixture (v/v) of MeCN in H2O supplemented with 10% of 2 M aqueous NaOAc and 1% of TFA. Analysis was performed using either a Scan-RAM radio-TLC detector (LabLogic Systems Ltd., Sheffield, United Kingdom) or a CR 35 BIO phosphorimager (Duerr Medical GmbH, Bietigheim-Bissingen, Germany).
For in vivo μmetabolism studies, 8-12 MBq (<0.6 nmol) of the respective ^18F-labeled ligand (rhPSMA-7.1-7.4) was injected into the tail vein of female healthy CB17-SCID mice (n=4). Mice were left under anesthesia for 30 min and the urine was collected using a bladder catheter. Urine samples were pooled and centrifuged for 5 min at 9000 rpm to remove suspended solids. The supernatant was directly used for radio-HPLC analysis with the above mentioned conditions. […]

[2] = test system: LNCaP tumor-bearing CB-17 SCID mice; assay: Biodistribution in LNCaP tumor-bearing SCID mice, 1 h p.i., with or without PMPA
Experimental: To establish tumor xenografts, LNCaP cells (10^7 cells/200 μL) were suspended in a 1:1 mixture (v/v) of Dulbecco modified Eagle medium/Nutrition Mixture F-12 with Glutamax-I (1:1) and Matrigel (BD Biosciences, Germany), and inoculated subcutaneously onto the right shoulder of 6-8 weeks old CB17-SCID mice (Charles River, Sulzfeld, Germany). Mice were used for when tumors had grown to a diameter of 5-8 mm (3-4 weeks after inoculation).
Approximately 1-2 MBq (<0.2 nmol) of the ^18F-labeled PSMA inhibitor was injected into the tail vein of LNCaP tumor-bearing male CB-17 SCID mice and sacrificed after 1 h post injection (n=4-5). Selected organs were removed, weighted and measured in a γ-counter

For `CC(C)(C)[Si](F)(c1ccc(C(=O)NC[C@@H](NC(=O)CC[C@@H](C(=O)O)N2CCN(CC(=O)O)CCN(CC(=O)O)CCN(CC(=O)O)CC2)C(=O)N[C@H](CCCCNC(=O)CCC(=O)NCCC[C@@H](NC(=O)CC[C@H](NC(=O)N[C@@H](CCC(=O)O)C(=O)O)C(=O)O)C(=O)O)C(=O)O)cc1)C(C)(C)C` [rhPSMA7.3, [^19F][^natGa]D-Dap-S-DOTAGA-rhPSMA7, metal not drawn], the “[F-18]rhPSMA7.3 share of radioactivity in urine” value ([1]; after addition of 5 nmol [F-19]rhPSMA7-3, room temperature) was 85.8% and the “[F-18]rhPSMA7.3 share of radioactivity in urine” value ([1]; radioactive urine before addition of cold [F-19]rhPSMA7.3) was 79.4%.
“[^19F][^natGa]D/L-Dap-R/S-DOTAGA-rhPSMA7 [rhPSMA7-rac]” gave a Biodistribution adrenals [2] of 3.0 ± 0.45 % ID/g, a Biodistribution blood [2] of 1.1 ± 0.03 % ID/g and a Biodistribution bone [2] of 0.91 ± 0.11 % ID/g. It also gave a Biodistribution heart [2] of 0.69 ± 0.07 % ID/g, a Biodistribution intestine [2] of 0.60 ± 0.27 % ID/g and a Biodistribution kidneys [2] of 71.3 ± 13.3 % ID/g. For the same compound, the Biodistribution liver [2] was 0.67 ± 0.07 % ID/g, the Biodistribution lung [2] was 1.4 ± 0.17 % ID/g and the Biodistribution muscle [2] was 0.36 ± 0.06 % ID/g. The Biodistribution pancreas [2] was 0.60 ± 0.10 % ID/g, the Biodistribution spleen [2] was 11.1 ± 2.3 % ID/g and the Biodistribution stomach [2] was 0.49 ± 0.07 % ID/g. The Biodistribution tumor [2] was 10.4 ± 0.67 % ID/g.
